Results from patent US6699896B1, “Oxazole-aryl-carboxylic acids useful in the treatment of insulin resistance and hyperglycemia” (Wyeth, priority 1998, dated 2004).
Marks after values point to notes of the source that are not given here.

Assays:
diabetic (ob/ob) mice = assay: Blood glucose lowering in diabetic (ob/ob) mice; type: in vivo, mouse; details: dose 100 mg/Kg, plasma glucose
Description: The procedures used and results obtained are briefly described below.
The non-insulin dependent diabetic (NIDDM) syndrome can be typically characterizes by obesity, hyperglycemia, abnormal insulin secretion, hyperinsulinemia and insulin resistance.
In each test procedure, mice [Male or female ob/ob (C57 B1/6J) and their lean litermates (ob/+ or +/+, Jackson Laboratories) ages 2 to 5 months (10 to 65 g)] of a similar age were randomized according to body weight into 4 groups of 10 mice. The mice were housed 5 per cage and are maintained on normal rodent chow with water ad libitum. Mice received test compound daily by gavage (suspended in 0.5 ml of 0.5% methyl cellulose); dissolved in the drinking water; or admixed in the diet. The dose of compounds given ranges from 2.5 to 200 mg/kg body weight/day. The dose is calculated based on the fed weekly body weight and is expressed as active moiety. […]
On the morning of Day 4, 7 or 14 two drops of blood (approximately 50 ul) were collected into sodium fluoride containing tubes either from the tail vein or after decapitation. […] The plasma was isolated by centrifugation and the concentration of glucose is measured enzymatically on an Abbott V.P. Analyzer.
For each mouse, the percentage change in plasma glucose on Day 4, 7 or 14 is calculated relative to the mean plasma glucose of the vehicle treated mice. […]

Human recombinant PTP1B = target: T1, Human recombinant PTP1B (Homo sapiens, UniProt P18031); type: biochemical; details: for IC50: recombinant PTP1B, malachite green phosphate detection; for percent of phosphatase control (change) at single concentration: compound at 2.5 uM
T1 construct: made in house
T1 sequence (P18031 1-435): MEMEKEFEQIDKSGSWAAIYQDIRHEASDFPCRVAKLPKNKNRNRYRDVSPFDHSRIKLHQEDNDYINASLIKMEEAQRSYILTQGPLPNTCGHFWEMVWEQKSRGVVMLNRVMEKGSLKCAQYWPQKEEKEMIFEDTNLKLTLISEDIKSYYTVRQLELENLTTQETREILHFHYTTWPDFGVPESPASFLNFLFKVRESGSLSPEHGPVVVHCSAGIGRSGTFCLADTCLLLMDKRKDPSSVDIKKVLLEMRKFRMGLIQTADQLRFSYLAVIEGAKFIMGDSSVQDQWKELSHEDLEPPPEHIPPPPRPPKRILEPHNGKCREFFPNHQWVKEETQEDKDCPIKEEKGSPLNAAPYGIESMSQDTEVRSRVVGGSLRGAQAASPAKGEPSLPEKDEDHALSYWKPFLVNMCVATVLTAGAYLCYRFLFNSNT

[1] = system: rat hepatic microsomal PTPases; details: PTPase activity, compound at 50 μM, rat liver microsomes

Compound	% Change Glucose from Vehicle (diabetic (ob/ob) mice)	melting point [°C]	IC50 (Human recombinant PTP1B) [nM]	percent of phosphatase control (change) at single concentration (Human recombinant PTP1B)	% Change from Control [1] [%]
CC1(COc2ccc(CC3SC(=O)NC3=O)cc2)CCCCC1 (stereo not drawn) [Ciglitazone, 5-(4-(1-methylcyclohexylmethoxy)benzyl)-2,4-dione, reference compound]	−43%				
COc1ccc(-c2ccc(-c3nc(-c4ccc(C(F)(F)F)cc4)oc3C)cc2)cc1 [Example 1, 4-(4′-Methoxy-biphenyl-4-yl)-5-methyl-2-(4-trifluoromethyl-phenyl)-oxazole]		167 to 168	1660		
COc1ccc(-c2cccc(-c3nc(-c4ccc(C(F)(F)F)cc4)oc3C)c2)cc1 [Example 2, 4-(4′-Methoxy-biphenyl-3-yl)-5-methyl-2-(4-trifluoromethyl-phenyl)-oxazole]		93 to 94		−47 (2.5 uM) %	
Cc1oc(-c2ccc(C(F)(F)F)cc2)nc1-c1ccc(-c2ccc(O)cc2)cc1 [Example 3, 4′-[5-Methyl-2-(4-trifluoromethyl-phenyl)-oxazol-4-yl]-biphenyl-4-ol]				−56 (2.5 uM) %	
Cc1oc(-c2ccc(C(F)(F)F)cc2)nc1-c1cccc(-c2ccc(O)cc2)c1 [Example 4, 3′-[5-Methyl-2-(4-trifluoromethyl-phenyl)-oxazol-4-yl]-biphenyl-4-ol]					−28
Cc1oc(-c2ccc(C(F)(F)F)cc2)nc1-c1ccc(-c2ccc(OCC(=O)O)cc2)cc1 [Example 5, {4′-[5-Methyl-2-(4-trifluoromethyl-phenyl)-oxazol-4-yl]-biphenyl-4-yloxy}-acetic Acid]	−40^a %		850		
Cc1oc(-c2ccc(C(F)(F)F)cc2)nc1-c1ccc(-c2ccc(OC(Cc3ccccc3)C(=O)O)cc2)cc1 (stereo not drawn) [Example 7, 2-{4′-[5-Methyl-2-(4-trifluoromethyl-phenyl)-oxazol-4-yl]-biphenyl-4-yloxy}-3-phenyl-propionic Acid]			1290		−74
Cc1oc(-c2ccc(C(F)(F)F)cc2)nc1-c1cccc(-c2ccc(OC(Cc3ccccc3)C(=O)O)cc2)c1 (stereo not drawn) [Example 8, 2-{3′-[5-Methyl-2-(4-trifluoromethyl-phenyl)-oxazol-4-yl]-biphenyl-4-yloxy}-3-phenyl-propionic Acid]			1250		−78
Cc1oc(-c2ccc(C(F)(F)F)cc2)nc1-c1ccc(-c2cc(Br)c(O)c(Br)c2)cc1 [Example 9, 3,5-Dibromo-4′-[5-methyl-2-(4-trifluoromethyl-phenyl)-oxazol-4-yl]-biphenyl-4-ol]			650		−20
Cc1oc(-c2ccc(C(F)(F)F)cc2)nc1-c1ccc(-c2cc(Br)c(OCC(=O)O)c(Br)c2)cc1 [Example 10, {3,5-Dibromo-4′-[5-methyl-2-(4-trifluoromethyl-phenyl)-oxazol-4-yl]-biphenyl-4-yloxy}-acetic Acid]			470		−35
COC(=O)C(Cc1ccccc1)Oc1c(Br)cc(-c2ccc(-c3nc(-c4ccc(C(F)(F)F)cc4)oc3C)cc2)cc1Br (stereo not drawn) [Example 11, 2-{3,5-Dibromo-4′-[5-methyl-2-(4-trifluoromethyl-phenyl)-oxazol-4-yl]-biphenyl-4-yloxy}-3-phenyl-propionic Acid Methyl Ester]		70 to 72		−40 (2.5 uM) %	
Cc1oc(-c2ccc(C(F)(F)F)cc2)nc1-c1ccc(-c2cc(Br)c(OC(Cc3ccccc3)C(=O)O)c(Br)c2)cc1 (stereo not drawn) [Example 12, 2-{3,5-Dibromo-4′-[5-methyl-2-(4-trifluoromethyl-phenyl)-oxazol-4-yl]-biphenyl-4-yloxy}-3-phenyl-propionic Acid]			130		−68
Cc1oc(-c2ccc(C(F)(F)F)cc2)nc1-c1ccc(-c2ccc(Cn3oc(=O)[nH]c3=O)cc2)cc1 [Example 13, 2-{4′-[5-Methyl-2-(4-trifluoromethyl-phenyl)-oxazol-4-yl]-biphenyl-4-ylmethyl}-[1,2,4]oxadiazolidine-3,5-dione]		196 to 198	1150		
Cc1oc(-c2ccc(C(F)(F)F)cc2)nc1-c1ccc(-c2cccc(Cn3oc(=O)[nH]c3=O)c2)cc1 [Example 14, 2-{4′-[5-Methyl-2-(4-trifluoromethyl-phenyl)-oxazol-4-yl]-biphenyl-3-ylmethyl}-[1,2,4]oxadiazolidine-3,5-dione]		216 to 218		−65 (2.5 uM) %	
Cc1oc(-c2ccc(C(F)(F)F)cc2)nc1-c1ccc(-c2ccc(OCc3nnn[nH]3)cc2)cc1 [Example 15, 5-{4′-[-Methyl-2-(4-trifluoromethyl-phenyl)-oxazol-4-yl]-biphenyl-4-yloxymethyl}-1H-tetrazole]		226 to 227	930		−47
Cc1oc(-c2ccc(C(F)(F)F)cc2)nc1-c1ccc2c(Br)c(OCC(=O)O)ccc2c1 [Example 16, {1-Bromo-6-[5-methyl-2-(4-trifluoromethyl-phenyl)-oxazol-4-yl]-naphthalen-2-yloxy}-acetic Acid]			1200		−20
Cc1oc(-c2ccc(C(F)(F)F)cc2)nc1-c1ccc2c(Br)c(OC(Cc3ccccc3)C(=O)O)ccc2c1 (stereo not drawn) [Example 17, 2-{1-Bromo-6-[5-methyl-2-(4-trifluoromethyl-phenyl)-oxazol-4-yl]-naphthalen-2-yloxy}-3-phenyl-propionic Acid]			980		−54
Ammonium molybdate tetrahydrate [reference compound]			8700		
